Where “and” joins values, the source holds several entries; their conditions need not be identical. Equal values may be shown once. Inconclusive results and toxic doses are left out. Rule for the calls: active = survival T/C of 150% or more; inactive = T/C below 125% in these data.
System: P388 leukemia ip, CD2F1 mice, survival T/C
Experiment: NCI In Vivo Anticancer Drug Screen. Data for tumor model P388 Leukemia (intraperitoneal) in CD2F1 (CDF1) mice
Conditions: endpoint: median survival time, higher = longer survival
Procedure, shortened: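 Mice carrying the transplanted tumor received test compound or vehicle. Survival was recorded in each group, and the value is the treated-group measurement divided by that of the vehicle-treated control group.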

[1] = dose: 50.0 mg/kg/injection, schedule: Q01DX005 (ip), vehicle: saline with Tween-80
[2] = dose: 100.0 mg/kg/injection, schedule: Q01DX005 (ip), vehicle: saline with Tween-80
[3] = dose: 200.0 mg/kg/injection, schedule: Q01DX005 (ip), vehicle: saline with Tween-80
[4] = dose: 100.0 mg/kg/injection, schedule: Q01DX001 (ip), vehicle: Klucel (hydroxypropylcellulose) (HPC)
[5] = dose: 200.0 mg/kg/injection, schedule: Q01DX001 (ip), vehicle: Klucel (hydroxypropylcellulose) (HPC)
[6] = dose: 400.0 mg/kg/injection, schedule: Q01DX001 (ip), vehicle: Klucel (hydroxypropylcellulose) (HPC)
[7] = dose: 100.0 mg/kg/injection, schedule: Q04DX003 (ip), vehicle: saline with Tween-80
[8] = dose: 200.0 mg/kg/injection, schedule: Q04DX003 (ip), vehicle: saline with Tween-80
[9] = dose: 400.0 mg/kg/injection, schedule: Q04DX003 (ip), vehicle: saline with Tween-80
[10] = dose: 12.5 mg/kg/injection, schedule: Q01DX009 (ip), vehicle: Klucel (hydroxypropylcellulose) (HPC)
[11] = dose: 50.0 mg/kg/injection, schedule: Q01DX009 (ip), vehicle: saline with Tween-80
[12] = dose: 100.0 mg/kg/injection, schedule: Q01DX009 (ip), vehicle: saline with Tween-80
[13] = dose: 200.0 mg/kg/injection, schedule: Q01DX009 (ip), vehicle: saline with Tween-80
[14] = dose: 25.0 mg/kg/injection, schedule: Q01DX009 (ip), vehicle: saline with Tween-80
[15] = dose: 25.0 mg/kg/injection, schedule: Q01DX009 (ip), vehicle: saline
[16] = dose: 50.0 mg/kg/injection, schedule: Q01DX009 (ip), vehicle: saline
[17] = dose: 100.0 mg/kg/injection, schedule: Q01DX009 (ip), vehicle: saline
[18] = dose: 25.0 mg/kg/injection, schedule: Q01DX009 (ip), vehicle: Klucel (hydroxypropylcellulose) (HPC)
[19] = dose: 50.0 mg/kg/injection, schedule: Q01DX009 (ip), vehicle: Klucel (hydroxypropylcellulose) (HPC)

Measured: T/C

CC(=O)C1=C(C)O/C(=C/c2ccc(Cl)cc2)C1=O
inactive: dose: 25.0 mg/kg/injection, schedule: Q01DX005 (ip), vehicle: saline with Tween-80 118 % of control | [1] 118 % of control and 120 % of control | [2] 119 % of control and 124 % of control

CC1=CC(=O)[C@@H](O)[C@@]2(C)C1C[C@H]1OC(=O)[C@H](C/C=C(/C)C(C)C)[C@H]3C(C)C(O)C4(O)OC[C@@]31C42 (stereo partly specified)
inactive: dose: 1.0 mg/kg/injection, schedule: Q01DX005 (ip), vehicle: saline with Tween-80 100 % of control | dose: 2.0 mg/kg/injection, schedule: Q01DX005 (ip), vehicle: saline with Tween-80 96 % of control | dose: 4.0 mg/kg/injection, schedule: Q01DX005 (ip), vehicle: saline with Tween-80 95 % of control | dose: 8.0 mg/kg/injection, schedule: Q01DX005 (ip), vehicle: saline with Tween-80 101 % of control

CCn1c(=O)c(C#N)c2n(CC)c3ccccc3n2c1=O
inactive: dose: 3.75 mg/kg/injection, schedule: Q01DX005 (ip), vehicle: saline with Tween-80 100 % of control | dose: 7.5 mg/kg/injection, schedule: Q01DX005 (ip), vehicle: saline with Tween-80 100 % of control | dose: 15.0 mg/kg/injection, schedule: Q01DX005 (ip), vehicle: saline with Tween-80 100 % of control

COc1cc(-c2nn3c(C)c(-c4ccccc4)nc3s2)cc(OC)c1OC
inactive: dose: 60.0 mg/kg/injection, schedule: Q01DX005 (ip), vehicle: saline with Tween-80 101 % of control | dose: 120.0 mg/kg/injection, schedule: Q01DX005 (ip), vehicle: saline with Tween-80 92 % of control | dose: 240.0 mg/kg/injection, schedule: Q01DX005 (ip), vehicle: saline with Tween-80 102 % of control

CCOC(=O)C1C(=O)CN(C(=O)OC)C1C (stereo unspecified)
inactive: [1] 96 % of control | [2] 99 % of control | [3] 93 % of control

NC(=S)c1ccc(/C=N/c2nc3ccccc3s2)cc1
inactive: dose: 25.0 mg/kg/injection, schedule: Q01DX001 (ip), vehicle: Klucel (hydroxypropylcellulose) (HPC) 103 % of control | dose: 50.0 mg/kg/injection, schedule: Q01DX001 (ip), vehicle: Klucel (hydroxypropylcellulose) (HPC) 97 % of control | [4] 96 % of control and 97 % of control | [5] 97 % of control | [6] 97 % of control

CC1(c2ccccc2)CCCCC/C1=N/Nc1ccc([N+](=O)[O-])cc1[N+](=O)[O-] (stereo unspecified)
inactive: dose: 25.0 mg/kg/injection, schedule: Q01DX005 (ip), vehicle: Klucel (hydroxypropylcellulose) (HPC) 97 % of control | dose: 50.0 mg/kg/injection, schedule: Q01DX005 (ip), vehicle: Klucel (hydroxypropylcellulose) (HPC) 90 % of control | dose: 100.0 mg/kg/injection, schedule: Q01DX005 (ip), vehicle: Klucel (hydroxypropylcellulose) (HPC) 94 % of control

Cc1ccc2c(c1)C1(SCCC(=O)N1c1ccc(Cl)cc1)C(=O)N2 (stereo unspecified)
inactive: [1] 103 % of control | [2] 95 % of control | [3] 100 % of control

COc1cc(C=NC2CCCCC2)c(Br)c(OC)c1OC
inactive: [4] 107 % of control | [5] 107 % of control | [6] 107 % of control

COC12CC(=O)C(C(C)=O)=C(O)C1(C)c1c(O)c(C)c(O)c(C(C)=O)c1O2 (stereo unspecified)
inactive: dose: 6.25 mg/kg/injection, schedule: Q01DX009 (ip), vehicle: gum acacia 105 % of control and 108 % of control | dose: 12.5 mg/kg/injection, schedule: Q01DX009 (ip), vehicle: gum acacia 109 % of control and 111 % of control | dose: 25.0 mg/kg/injection, schedule: Q01DX009 (ip), vehicle: gum acacia 111 % of control and 115 % of control | dose: 50.0 mg/kg/injection, schedule: Q01DX009 (ip), vehicle: gum acacia 107 % of control and 113 % of control

COC(=O)C1=C(C)NC(=O)NC1c1ccc(OC)cc1 (stereo unspecified)
inactive: [7] 95 % of control | [8] 95 % of control | [9] 100 % of control

c1ccc(C2SCC3COCN32)cc1 (stereo unspecified)
inactive: [7] 97 % of control | [8] 101 % of control | [9] 100 % of control

CC(=O)O.CC(=O)O.CC(=O)O.CC(=O)O.[Rh].[Rh]
inactive: dose: 1.56 mg/kg/injection, schedule: Q01DX009 (ip), vehicle: Klucel (hydroxypropylcellulose) (HPC) 111 % of control | dose: 3.13 mg/kg/injection, schedule: Q01DX009 (ip), vehicle: Klucel (hydroxypropylcellulose) (HPC) 117 % of control | dose: 6.25 mg/kg/injection, schedule: Q01DX009 (ip), vehicle: Klucel (hydroxypropylcellulose) (HPC) 99 % of control | dose: 6.25 mg/kg/injection, schedule: Q04DX003 (ip), vehicle: saline 100 % of control | [10] 115 % of control | dose: 12.5 mg/kg/injection, schedule: Q04DX003 (ip), vehicle: saline 100 % of control | dose: 25.0 mg/kg/injection, schedule: Q04DX003 (ip), vehicle: saline 122 % of control

O=C(Nc1ccccc1Br)c1cccc([N+](=O)[O-])c1O
inactive: [11] 107 % of control | [12] 98 % of control | [13] 97 % of control

c1ccc2c(c1)Nc1nccnc1[Se]2
inactive: dose: 100.0 mg/kg/injection, schedule: Q04DX002 (ip), vehicle: Klucel (hydroxypropylcellulose) (HPC) 100 % of control | dose: 200.0 mg/kg/injection, schedule: Q04DX002 (ip), vehicle: Klucel (hydroxypropylcellulose) (HPC) 101 % of control | dose: 400.0 mg/kg/injection, schedule: Q04DX002 (ip), vehicle: Klucel (hydroxypropylcellulose) (HPC) 101 % of control

O=[N+]([O-])c1cc(NC(=S)SCc2ccc(Cl)cc2)ccc1Cl
inactive: [14] 106 % of control | [15] 105 % of control | [11] 100 % of control | [16] 100 % of control | dose: 50.0 mg/kg/injection, schedule: Q01DX009 (ip), vehicle: suspension in saline 109 % of control | [12] 106 % of control | [17] 107 % of control | dose: 100.0 mg/kg/injection, schedule: Q01DX009 (ip), vehicle: suspension in saline 108 % of control | [13] 106 % of control | dose: 200.0 mg/kg/injection, schedule: Q01DX009 (ip), vehicle: saline 110 % of control | dose: 200.0 mg/kg/injection, schedule: Q01DX009 (ip), vehicle: suspension in saline 121 % of control

Cc1ccc([N+](=O)[O-])cc1O
inactive: dose: 25.0 mg/kg/injection, schedule: Q01DX009 (ip), vehicle: other 95 % of control | dose: 50.0 mg/kg/injection, schedule: Q01DX009 (ip), vehicle: other 100 % of control | dose: 100.0 mg/kg/injection, schedule: Q01DX009 (ip), vehicle: other 110 % of control

Cc1nc2nc3n(c(=O)c2nc1C)CCS3
inactive: dose: 100.0 mg/kg/injection, schedule: Q01DX001 (ip), vehicle: saline 103 % of control | dose: 200.0 mg/kg/injection, schedule: Q01DX001 (ip), vehicle: saline 108 % of control | dose: 400.0 mg/kg/injection, schedule: Q01DX001 (ip), vehicle: saline 102 % of control

O=C(O)CNc1ncnc2c1CCc1ccccc1-2
inactive: dose: 100.0 mg/kg/injection, schedule: Q04DX002 (ip), vehicle: saline 100 % of control | dose: 200.0 mg/kg/injection, schedule: Q04DX002 (ip), vehicle: saline 99 % of control | dose: 400.0 mg/kg/injection, schedule: Q04DX002 (ip), vehicle: saline 91 % of control

O=S1(c2ccccc2)=NC(=S)Nc2ccccc21 (stereo unspecified)
inactive: [11] 111 % of control | [12] 102 % of control | [13] 98 % of control

c1n[nH]c2c1CCCC2
inactive: dose: 12.5 mg/kg/injection, schedule: Q01DX009 (ip), vehicle: saline 96 % of control | [15] 105 % of control | [16] 91 % of control | [17] 104 % of control

C1CCC(N2OC23CCCCC3)CC1 (stereo unspecified)
inactive: [14] 113 % of control | [11] 117 % of control | [12] 123 % of control | [13] 113 % of control

C=C(C)C1CC2(C)C(C)CC(O)CC2C(OC(=O)/C=C(/C)CC)C1O (stereo unspecified)
inactive: [10] 97 % of control | [18] 98 % of control | [19] 97 % of control | dose: 100.0 mg/kg/injection, schedule: Q01DX009 (ip), vehicle: Klucel (hydroxypropylcellulose) (HPC) 97 % of control

Nc1ccc(-c2csc(-c3ccc(Br)cc3)n2)cc1
inactive: [10] 100 % of control | [18] 91 % of control | [19] 88 % of control

Source: PubChem BioAssay AID330 (DTP/NCI, 2004)
